Measured values as given in patent US8093393B2, “Cationic ceramides, and analogs thereof, and their use for preventing or treating cancer” (MUSC Foundation for Research Development, priority 2004, dated 2012).
≈ marks a conversion by molar mass, not a printed value. Read-outs that look alike come from different tables or passages of the source.

How the values were obtained:
[1] = Solubility of ceramides and ceramidoids in water; conditions: 37° C.
[2] = test system: MCF7 breast carcinoma cells; assay: Cell proliferation and viability, Trypan blue exclusion assay; type: cell-based; conditions: for IC50: 48 h treatment, read-out: IC50, inhibitory effect on MCF7 cell growth
Description: FIGS. 5A-5F show the dose dependent effects of CCPS analogs on survival of MCF7 breast carcinoma cells in comparison to the activity of D-e-C6-ceramide, which is commonly used as a model of ceramide action. Cell proliferation and cell viability were determined by Trypan blue exclusion assay. These assays were performed using duplicate samples in two or three independent experiments.
Cell Proliferation: Cells were seeded into plates at a density of approx. 50% corresponding to 1×10^6 cells, in 10 ml of 10% FCS and after an over night incubation the cells were treated with LCL compounds at concentration 0-20 μM in ethanol (ethanol level was kept below 0.1%) and the changes in cell numbers after 48 h were determined and expressed as a percentage of the untreated controls.
Briefly, media was removed, cells were washed twice with PBS, detached using 1% Trypsin and centrifuged at 800 rpm. Cell pellets were resuspended in PBS and Trypan blue (Sigma Chemicals, St. Louis, Mo., USA) was added (1:1 dilution). Under light microscope, the percentage of unstained and stained cells was assessed.
To examine the anticancer activity of CCPS analogs of the invention, their inhibitory effect on MCF7 breast carcinoma cells were analyzed and compared to the activity of D-e-C6-ceramide, which is commonly used as a model of action for ceramides. Cell proliferation and cell viability were determined by Trypan blue exclusion assay.

[3] = test system: isolated rat liver mitochondria; assay: Cytochrome C release from mitochondria; type: biochemical; conditions: 40 μM; for cytochrome C released from mitochondria: 20 minutes of incubation
Description: FIGS. 20A and 20B. […] Two min after the addition of CSA and EGTA samples were collected and treated for cytochrome C analysis. Alamethicin (ALA, 7 μg/mg protein) was added as indicated to determine the full degree of permeabilization and maximum cytochrome C release. […] Total amount of cytochrome C is 1.95 μg/mg protein.
Cytochrome C release from mitochondria. Aliquots of mitochondrial suspension were taken as indicated in figure legends and centrifuged at 15,000 g for 3 min. The supernatant and mitochondrial pellet were frozen and stored at […]. Cytochrome C in supernatants and pellets was quantified using the Quantikine cytochrome C ELISA kit (R&D Systems, Minniapolis, Minn.).

[4] = test system: isolated rat liver mitochondria; assay: Accumulation / binding in isolated mitochondria
Description: FIG. 16. […] Bar 2 and 4 (+FCCP), ΔΨ was dissipated by addition of FCCP at 1 μM plus antimycin A at 0.5 μg/mg protein from the beginning of the experiment. Results are expressed as mean+SEM of n=3, *p=0.01 versus control.
FIG. 23. […] Trace 3 was corrected for the absorbance of TMRM.
Preparation of mitochondria from rat liver.
Mitochondrial incubation medium.
Analysis of ceramides by mass spectroscopy (MS).

MCF7 cells [5] = test system: MCF7 cells
Description: (§1) Dose-response curves of ceramides effect on viability of Hep G2 and MCF7 cells. Hep G2 and MCF7 cells were incubated at the condition described in Section 9.1. […] Cell viability was assessed 46 hours after addition of ceramides. Data are expressed as a mean+SEM of n=3.
(§2) Cell culture. Hep G2 cells (obtained from ATCC) were cultured in Minimum essential medium (Eagle) supplemented with 10% fetal bovine serum, 2 mM L-glutamine, non-essential amino acids, 1 mM sodium pyruvate, and 1.5 g/L sodium bicarbonate in humidified air (5% CO2) at 37° C. […] MCF7 cells (obtained from ATCC) were cultured in RPMI 1640 Medium supplemented with 10% fetal bovine serum and 2 mM glutamine in humidified air (5% CO2) at 37° C. All media were supplemented with 100 U/ml penicillin and 100 μg/ml streptomycin.
(§3) Measurement of cell viability. Hep G2 or MCF7 cells were plated at a density of 10^4 cells/well in 96-well plates in the medium described under Cell culture. After 24 hours of incubation, the cells were treated with ceramides for 46 hours in 2% fetal bovine serum medium. Cell viability was determined by MTT (3-[4,5-dimethylthiazol-2-yl]-2,5-diphenyl tetrasodium bromide) based assay according manufacture recommendation (Sigma, St. Louis, Mo.).

[6] = test system: isolated rat liver mitochondria; assay: Mitochondrial permeabilization (ΔΨ, large-amplitude swelling); conditions: for IC50: read-out: IC50 of mitochondrial swelling, swelling 30 min after ceramide treatment
Description: Effects of ceramides on ΔΨ value (17A) and mitochondrial large-amplitude swelling (17B, 17C) Mitochondria were incubated at the condition described under Section 9.1 except that 2 μM of TPP+ was present from the beginning of the experiment. Alamethicin (ALA), a pore-forming peptide (7 μg/mg protein), was added as indicated to induce permeabilization and determine the full extend of potential changes in the parameters of interest. Where indicated ceramides at 40 μM were present from the beginning of the experiment. FIGS. 17A and 17B show time-courses of ceramides effect on ΔΨ and mitochondrial swelling. […] Degree of mitochondrial swelling was determined 30 min after ceramide treatment.
Mitochondria were incubated at the condition described under Section 9.1 except that 2 μM of TPP+ was present from the beginning of the experiment. Trace 2, no addition. […] Trace 4, FCCP at 1 μM was present from the beginning of the experiment. […] Alamethicin (ALA), a pore-forming peptide (7 μg/mg protein), was added as indicated to induce permeabilization and determine the full extent of potential changes in the parameters of interest.
Mitochondria were incubated at the condition described under “Experimental procedures”. […] Trace 2, DCCD at 100 μM was added from the beginning of the experiment. Alamethicin (ALA) was added as indicated to determine full degree of permeabilization. […] The curve was generated from experiments similar to that depicted in traces 1 and 2 with indicated concentration of DCCD present from the beginning of the experiment.
Effect of hydrophobic cations on the time-course of mitochondrial large-amplitude swelling. Alamethicin (ALA), a pore-forming peptide (7 μg/mg protein), was added as indicated to induce permeabilization and determine the full extent of mitochondrial swelling. Where indicated cations at 60 μM were added to the incubation medium. Trace 1, no additions; trace 2, C2 pyridinium ceramide; trace 3, TMRM; trace 4, cetyl pyridinium; trace 5, TPP^+. Trace 3 was corrected for the absorbance of TMRM.
Time-course (A) and dose-response (B) of the effect of C6 pyridinium dihydroceramide on mitochondrial large-amplitude swelling. Mitochondria were incubated at the condition described under “Experimental procedures”. Alamethicin (ALA), a pore-forming peptide (7 μg/mg protein), was added as indicated to induce permeabilization and determine the full extent of mitochondrial swelling. Where indicated ceramides at 30 μM were added to the incubation medium. […] Trace 1, no additions; trace 2, C6 pyridinium ceramide; trace 3, C6 pyridinium dihydroceramide. […] Degree of mitochondrial swelling was determined 15 min after ceramide treatment. Trace 1, C6 pyridinium dihydroceramide; trace 2, C6 pyridinium ceramide.

MCF7 cells [7] = conditions: 5 μM, 5 h
Description: FIGS. 4A-4C show the cellular levels of CCPS analogs. MCF 7 cells were treated with 5 μM concentration of CCPS analogs over the time and cellular level of the nonmetabolized CCPSs was measured by MS methodology as shown under Experimental. Results are expressed as % of concentration applied.
A parallel set of cells was used to determine cell proliferation and to prepare lipid extracts for MS analysis.
Briefly, for the indicated points, media was removed, cells were washed twice with PBS, scraped into cold PBS (2×1.0 ml), transferred to glass vials and centrifuged for 5 min at 800 rpm. Cell pellets corresponding to ˜1×10^6 cells, were fortified with the internal standards IS (C17 base D-erythro-sphingosine: 17Sph, C17 sphingosine-1-phosphate: 17Sph-1P, N-palmitoyl-D-erythro-C13 sphingosine: 13CC16-Cer and N-heptadecanoyl-D-erythro-C17shingosine: 17CC17-Cer) and extracted (2×2 ml) into a one-phase solvent system with ethyl acetate/iso-propanol/water (60/30/10 v/v). One ml of this extract was used for Pi determination after lipid re-extraction by the Bligh and Dyer method. Remaining lipid extract was evaporated, reconstituted in 100 μl of methanol, and samples were injected on the Surveyor/TSQ 7000 LC/MS system and gradient eluted from the BDS Hypersil C8, 150×3.2 mm, 3 μm particle size column, with 1.0 mM methanolic ammonium formate/2 mM aqueous ammonium formate mobile phase system. Peaks corresponding to the target analytes and IS were collected and processed using the Xcalibur software system.
Cellular level of CCPS analogs was established by MS methodology.

UM-SCC-22A cells [8] = assay: Cell cycle profiles by flow cytometry; type: cell-based, human; conditions: 1 μM, 48 hr
Description: FIGS. 13A to 13B. Roles of CCPS on cell cycle profiles, and telomerase activity of UM-SCC-22A cells. (FIG. 13A) The effects of D-e-C6—, D-e-C12- and L-th-C12-pyridinium ceramides (at 1 μM for 48 hr) on cell cycle profiles of UM-SCC-22A cells were determined and compared to that of untreated cells using flow cytometry as described in Materials and Methods. (FIG. 13B) The effects of 0, 100, 250 and 500 nM L-t-C6-Pyr-Cer (LCL-124) (lanes 1-4, respectively) at 96 hr treatment in UM-SCC-22A cells on telomerase activity was assessed using TRAP assay. Lanes 5 and 6 contain positive (+) and negative (−) controls. To examine whether C6-Pyr-Cer inhibits telomerase activity directly, cell extracts (as shown in lane 1) were incubated in the presence of various concentrations of L-th-C6-Pyr-ceramide (LCL-124; 10, 20 and 100 μM) and telomerase activity was determined using TRAP assay (lanes 7-9, respectively). The presence of non-telomeric 36 bp internal standard (IS) in the TRAP assay serves as a control for polymerase chain reaction, and used for quantitation/normalization of the activity of telomerase. The results shown are representative of at least two independent experiments.
Analysis of cell cycle profiles. The effects of pyridinium ceramides on the cell cycle profiles of A549 cells at 24 hr were analyzed in the presence of DNase-free RNase and propidium iodine (PI) by flow cytometry as described in Ogretmen et al., J. Biol. Chem. 2001; 276: 24901-24910, which is incorporated herein by reference in its entirety. Untreated cells were used as controls.
Analysis of cell cycle profiles. […] Untreated cells were used as controls.

UM-SCC-22A cells [9] = assay: MTT cell survival assay and isobologram studies; type: cell-based, human; conditions: UM-SCC-22A, read-out: IC50, cell growth
Description: Human head and neck cancer cell lines UM-SCC-1 (retromolar trigone/floor of the mouth), UM-SCC-12 (primary tumor of larynx), and UM-SCC-22A cells were obtained from clinical samples. Cells were grown in DMEM containing 10% FCS and 1% penicillin/streptomycin at 37° C. in 5% CO2.
MTT cell survival assay and isobologram studies. The concentrations of agents that inhibited cell growth by 50% (IC50) were determined from cell survival plots obtained by MTT. Triplicate wells were used for each treatment. The final concentration of DMSO (a solvent for conventional ceramides, GMZ and DOX) in the growth medium was less than 0.1% (v/v) which has no effect on cell growth and survival. Pyridinium ceramides were dissolved in sterile water or growth medium. In short, after cells (5-10×10^3/well) were seeded in 96-well-plates for 24 hr, they were treated with increasing concentrations of ceramide analogs for an additional 48 or 96 hr. For combination treatments, ceramides and chemotherapeutic agents (gemcitabine (GMZ) or doxorubicin (DOX)) were added to the growth medium simultaneously during treatment. Isobologram plots were then constructed using IC50 values of the two agents alone or in combination obtained from MTT assays. A straight line joining points on x- and y-axes represent the IC50 concentrations of two agents, and the points representing the IC50 concentrations of the combination of the two agents are represented as scatter plots on the same graphs. In general, the points that fall within the left of the straight line indicate synergism. The experiments were performed as triplicates in at least 3 independent experiments.
Human head and neck cancer cell lines UM-SCC-1 (retromolar trigone/floor of the mouth), UM-SCC-14A (SCC of anterior floor of the mouth), and UM-SCC-22A (SCC of hypopharynx) cells were obtained. Cells were grown in DMEM containing 10% FCS and 1% penicillin/streptomycin at 37° C. in 5% CO2.
MTT cell survival assay and isobologram studies. The concentrations of agents that inhibited cell growth by 50% (IC50) were determined from cell survival plots obtained by MTT assays. […] In general, the points that fall within the left of the straight line indicate synergism. The experiments were performed as triplicates in at least 3 independent experiments. Error bars represent standard deviations.

MCF7 cells [10] = conditions: 5 μM
Description: Data are expressed as changes in the total ceramide level (pmol) or individual ceramide components (pmol) normalized to the phospholipid level, Pi (nmol) present in the Bligh & Dyer lipid extract and shown as changes to the control cells: Ceramide/Pi[pmol/nmol] (% Control).
Endogenous ceramide: ESI/MS/MS analysis of endogenous sphingoid bases, sphingoid base 1-phosphates and ceramide species was performed on a Thermo Finnigan TSQ 7000 triple quadrupole mass spectrometer, operating in a Multiple Reaction Monitoring (MRM) positive ionization mode using modified version (Bielawski, J. et al., SERMACS 2003, poster #68) of the protocol previously published (Sullard, M. C., Merrill, A. H., Sciences stke 2001/67/p 11).
Briefly, for the indicated points, media was removed, cells were washed twice with PBS, scraped into cold PBS (2×1.0 ml), transferred to glass vials and centrifuged for 5 min at 800 rpm. Cell pellets corresponding to ˜1×10^6 cells, were fortified with the internal standards IS (C17 base D-erythro-sphingosine: 17Sph, C17 sphingosine-1-phosphate: 17Sph-1P, N-palmitoyl-D-erythro-C13 sphingosine: 13CC16-Cer and N-heptadecanoyl-D-erythro-C17shingosine: 17CC17-Cer) and extracted (2×2 ml) into a one-phase solvent system with ethyl acetate/iso-propanol/water (60/30/10 v/v). One ml of this extract was used for Pi determination after lipid re-extraction by the Bligh and Dyer method. Remaining lipid extract was evaporated, reconstituted in 100 μl of methanol, and samples were injected on the Surveyor/TSQ 7000 LC/MS system and gradient eluted from the BDS Hypersil C8, 150×3.2 mm, 3 μm particle size column, with 1.0 mM methanolic ammonium formate/2 mM aqueous ammonium formate mobile phase system. […]
Quantitative analysis was based on the calibration curves generated by spiking an artificial matrix with the known amounts of the target analyte synthetic standards and an equal amount of the internal standards (IS). […]
Final data were adjusted and results were expressed as level of particular sphingolipids/Pi (pmol/nmol).

[11] = aqueous conditions at pH 4.5, 7.5 and 8.5 over 48 hrs

Description for Hep G2 cells: as §1, §2, §3

CCCCCCCCCCCCC/C=C/[C@@H](O)[C@H](CO)NC(=O)CCCCC [C6-Cer, D-erythro-C6-ceramide, reference compound]
Solubility at 37° C. [1]: 1.4 µg/mL (≈ 3.52 µM)
Solubility at 37° C. ([mM]) [1]: (0.0036) mM
inhibition of MCF7 cell growth ([2]; 10 μM, 48 h): ~35%
IC50 [2]: 15000 nM
cytochrome C released from mitochondria [3]: no effect on cytochrome C release
suppression of accumulation by dissipation of ΔΨ (antimycin plus FCCP) ([4]; 10 μM): insensitive to dissipation of ΔΨ
association with mitochondria ([4]; 10 μM, energized mitochondria): 79.3%
binding to mitochondria ([4]; 30 μM, at 4 min): 5±0.8 nmol/mg protein
IC50 (Hep G2 cells): ~31000 nM
IC50 (MCF7 cells [5]): ~16000 nM
IC50 [6]: > 60000 nM

CCCCCCCCCCCCC/C=C/[C@@H](O)[C@H](CO)NC(=O)CCCCCCCCCCCCCCC[n+]1ccccc1.[Br-] [LCL30, D-erythro-2-N-[16′-(1″-Pyridinium)-hexadecanoyl]-sphingosine Bromide]
Cellular level, % of concentration applied (MCF7 cells [7]): ~17%
inhibitory effect on MCF7 cell growth (in words) ([2]; 48 h): similar, concentration dependent (1.0-10.0 μM) inhibitory effect on cell growth
IC50 ([2]; listed as LCL-30): 1600 nM
IC50 [2]: 1800 nM
cell cycle profile (UM-SCC-22A cells [8]): significant increase in the population of cells in G0/G1
IC50 (UM-SCC-22A cells [9]; 48 hr): ~1000 nM
IC50 (UM-SCC-22A cells [9]; 96 hr, DMEM): ~300 nM
effect on endogenous ceramide (MCF7 cells [10]): caused generation of an “early Cer”
Stability (decomposition) by MS [11]: no evidence of their decomposition

CCCCCCCCCCCCC/C=C/[C@@H](O)[C@H](CO)NC(=O)CCCCCCCCCCC[n+]1ccccc1.[Br-] [LCL88, D-erythro-2-N-[12′-(1″-Pyridinium)-dodecanoyl]-sphingosine Bromide]
Cellular level, % of concentration applied (MCF7 cells [7]): 23%
IC50 [2]: 600 nM
cell cycle profile (UM-SCC-22A cells [8]): significant increase in the population of cells in G0/G1
IC50 (UM-SCC-22A cells [9]; 48 hr): ~1000 nM
IC50 (UM-SCC-22A cells [9]; 96 hr, DMEM): ~300 nM
effect on endogenous ceramide (MCF7 cells [10]): caused generation of an “early Cer”
Stability (decomposition) by MS [11]: no evidence of their decomposition

D-erythro-2-N-[6′-(1″-Pyridinium)-hexanoyl]-sphingosine Bromide [LCL29]
inhibitory effect on MCF7 cell growth (in words) ([2]; 48 h): caused inhibitory effect on MCF7 cell growth
IC50 [2]: 1000 nM
fold decrease in cytochrome C release with FCCP plus antimycin A ([3]; 20 minutes): ~3 fold
cytochrome C released from mitochondria [3]: about 40%
IC50 (Hep G2 cells): ~8000 nM
IC50 (MCF7 cells [5]): ~2000 nM
cell cycle profile (UM-SCC-22A cells [8]): significant increase in the population of cells in G0/G1
IC50 (UM-SCC-22A cells [9]; 48 hr): ~1000 nM
IC50 (UM-SCC-22A cells [9]; 96 hr, DMEM, listed as D-e-C6-Pyr-Cer): ~300 nM
effect on ΔΨ and mitochondrial swelling (in words) ([6]; 40 μM): complete dissipation of ΔΨ
IC50 [6]: ~27500 nM
effect on endogenous ceramide (MCF7 cells [10]): caused generation of an “early Cer”
